# Assay results published in US7034039B2, “Fused heterocyclic compounds” (Takeda Pharmaceutical Company Limited, priority 2001, dated 2006).
# Counter-ions that a name gives are not always drawn.
# Biological target: T1, dipeptidyl peptidase IV in rat plasma (Rattus norvegicus, UniProt P14740)
# T1 construct: Plasma (20 μl) prepared from blood of SD rat by a conventional method; from tissue; host or cells: plasma of SD rat
# Assay: Determination of dipeptidyl peptidase IV inhibitory activity in rat plasma
# Format: biochemical
# Settings: SD rat plasma, substrate Gly-Pro-p-NA, 30° C., absorbance 405 nm after 0 h and 1 h
# Procedure: Determination of Dipeptidyl Peptidase IV Inhibitory Activity in Rat Plasma
# An N,N-dimethylformamide solution (1 μl) containing the test compound was added to a mixture of water (69 μl), 1M Tris-hydrochloride buffer (10 μl, pH 7.5) and 1 mM aqueous Gly-Pro-p-NA solution (100 μl) to prepare a mixed solution. Plasma (20 μl) prepared from blood of SD rat by a conventional method was added the above-mentioned, mixed solution and the enzyme reaction was started at 30° C. The absorbance after 0 h and 1 h was measured using a microplate reader at a wavelength of 405 nm and an increase (ΔODs) was determined. At the same time, an increase (ΔODc) in absorbance of the reaction mixture without the test compound, and an increase (ΔODb) in absorbance of the reaction mixture without the test compound and the enzyme were determined and percent inhibition of dipeptidyl peptidase IV enzyme activity was calculated from the following formula: {1-[(ΔODs−ΔODb)/(ΔODc−ΔODb)]}×100
# T1 sequence (P14740 38-767 limits assumed): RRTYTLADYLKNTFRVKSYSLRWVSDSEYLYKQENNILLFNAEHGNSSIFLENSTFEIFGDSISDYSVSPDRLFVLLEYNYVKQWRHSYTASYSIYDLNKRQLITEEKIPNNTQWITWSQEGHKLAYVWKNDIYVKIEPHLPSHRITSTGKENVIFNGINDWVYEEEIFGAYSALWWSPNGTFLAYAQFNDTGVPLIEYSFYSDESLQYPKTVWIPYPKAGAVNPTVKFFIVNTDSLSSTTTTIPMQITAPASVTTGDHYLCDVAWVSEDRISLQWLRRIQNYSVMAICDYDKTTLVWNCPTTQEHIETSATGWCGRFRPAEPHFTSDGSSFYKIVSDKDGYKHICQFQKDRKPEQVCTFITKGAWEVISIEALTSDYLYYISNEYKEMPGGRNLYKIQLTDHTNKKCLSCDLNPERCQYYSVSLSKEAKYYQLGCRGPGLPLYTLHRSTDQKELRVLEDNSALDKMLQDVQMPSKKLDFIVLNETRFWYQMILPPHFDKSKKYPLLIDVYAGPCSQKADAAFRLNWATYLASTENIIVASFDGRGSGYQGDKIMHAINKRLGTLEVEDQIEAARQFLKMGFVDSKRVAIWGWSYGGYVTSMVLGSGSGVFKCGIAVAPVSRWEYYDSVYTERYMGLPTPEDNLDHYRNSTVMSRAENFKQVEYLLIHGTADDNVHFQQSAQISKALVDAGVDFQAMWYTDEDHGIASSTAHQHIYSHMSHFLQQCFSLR
row,Compound,IC50 [nM]
1,"CCCCOc1c(CN)n(CC(C)(C)C)c(=O)c2ccc(OCC(N)=O)cc12 [Example 95, 2-{{3-(Aminomethyl)-4-butoxy-2-neopentyl-1-oxo-1,2-dihydro-6-isoquinolinyl}oxy}acetamide hydrochloride]",180
2,"CC(=O)Nc1ccc2c(=O)n(CC(C)C)c(CN)c(-c3ccccc3)c2c1.Cl [Example 112, 6-Acetylamino-3-aminomethyl-2-isobutyl-4-phenyl-1(2H)-isoquinolinone hydrochloride]",320

# System: Wistar fatty rats
# Assay: Plasma glucose-lowering effect and insulinotropic effect in rat (oral glucose tolerance test)
# Format: in vivo
# Settings: female Wistar fatty rats, 3 mg/kg orally 60 min before glucose load (1 g/kg), blood at 30 min after glucose load
# Procedure: Plasma Glucose-lowering Effect and Insulinotropic Effect in Rat
# Female Wistar fatty rats (17-week-old, 6 per group) were fasted overnight and blood was drawn from the tail vein. The plasma glucose level before administration of the test compound was measured. Then the test compound (3 mg/kg body weight/5 mL) suspended in 0.5% methyl cellulose was orally administered to the rats using a gastric tube. Oral glucose tolerance test (1 g/kg body weight/5 mL) was started 60 min later. Blood was drawn at 30 min after starting glucose load, and plasma glucose level and insulin level of the serum were measured.
Compound,Plasma glucose level,insulin level
"CCCCOc1c(CN)n(CC(C)(C)C)c(=O)c2ccc(OCC(N)=O)cc12 [Example 95, 2-{{3-(Aminomethyl)-4-butoxy-2-neopentyl-1-oxo-1,2-dihydro-6-isoquinolinyl}oxy}acetamide hydrochloride]",82 % of control,188 % of control
"CC(C)Cn1c(CN)c(-c2ccccc2)c2cc(C(N)=O)ccc2c1=O [Example 109, 3-Aminomethyl-2-isobutyl-4-phenyl-1(2H)-isoquinolinone-6-carboxamide hydrochloride [3-(aminomethyl)-2-isobutyl-1-oxo-4-phenyl-1,2-dihydro-6-isoquinolinecarboxamide hydrochloride]]",73 % of control,205 % of control
"CC(=O)Nc1ccc2c(=O)n(CC(C)C)c(CN)c(-c3ccccc3)c2c1.Cl [Example 112, 6-Acetylamino-3-aminomethyl-2-isobutyl-4-phenyl-1(2H)-isoquinolinone hydrochloride]",76 % of control,255 % of control

# Biological target: T2, Caco-2-derived dipeptidyl peptidase IV (Homo sapiens, UniProt P27487)
# T2 construct: A dipeptidyl peptidase IV crude enzyme solution was prepared from culture cell of Caco-2 (ATCC HTB-37); endogenous in cells; host or cells: Caco-2 (ATCC HTB-37)
# T2 sequence (P27487 whole entry): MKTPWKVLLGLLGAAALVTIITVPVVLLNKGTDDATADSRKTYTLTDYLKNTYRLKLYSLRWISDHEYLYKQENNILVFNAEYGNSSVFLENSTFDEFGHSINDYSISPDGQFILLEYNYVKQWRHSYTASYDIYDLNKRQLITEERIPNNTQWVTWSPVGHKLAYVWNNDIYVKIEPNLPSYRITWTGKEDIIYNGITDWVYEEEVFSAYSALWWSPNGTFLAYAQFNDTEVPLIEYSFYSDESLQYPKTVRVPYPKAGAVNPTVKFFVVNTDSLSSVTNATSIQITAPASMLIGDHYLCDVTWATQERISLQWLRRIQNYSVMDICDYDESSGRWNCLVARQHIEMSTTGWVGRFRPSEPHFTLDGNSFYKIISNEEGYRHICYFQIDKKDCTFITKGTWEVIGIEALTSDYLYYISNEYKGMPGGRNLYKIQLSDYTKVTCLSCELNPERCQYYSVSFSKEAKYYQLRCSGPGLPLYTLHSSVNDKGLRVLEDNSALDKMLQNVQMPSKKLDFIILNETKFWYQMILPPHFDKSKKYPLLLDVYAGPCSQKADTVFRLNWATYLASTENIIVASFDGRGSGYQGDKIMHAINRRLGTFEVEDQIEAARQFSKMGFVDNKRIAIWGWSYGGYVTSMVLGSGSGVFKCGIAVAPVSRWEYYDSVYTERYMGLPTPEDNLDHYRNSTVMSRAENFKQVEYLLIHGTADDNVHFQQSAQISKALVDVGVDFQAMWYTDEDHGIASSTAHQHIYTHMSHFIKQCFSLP
# Assay: Determination of Caco-2-derived dipeptidyl peptidase IV inhibitory activity
# Format: biochemical
# Settings: Caco-2 crude enzyme solution, substrate Gly-Pro-p-NA, 37° C., absorbance 405 nm after 0 h and 3 h
# Procedure: 1) Preparation of Dipeptidyl Peptidase IV Crude Enzyme Solution
# A dipeptidyl peptidase IV crude enzyme solution was prepared from culture cell of Caco-2 (ATCC HTB-37). The Caco-2 cells were cultured in D-MEM medium (manufactured by Nissui Pharmaceutical Co., Ltd.) containing 10% FBS (fetal calf serum (manufactured by GIBCO)). The cell extract was prepared by soaking the cells collected by removing the medium in 20 mM phosphate buffer. (pH 7.5) containing 0.5% Triton X-100, extracting for 30 min in an ice bath and separating the supernatant obtained by centrifugation 1500 g for 30 min. The cell extract (22 ml) was applied to a column of Sephadex G-200 (600 ml, manufactured by Pharmacia Corporation) equilibrated with 20 mM Tris-hydrochloride buffer (pH 7.5) and eluted with the same buffer. The elution was fractionated by 10 ml, examined for enzyme activity and 190 ml–280 ml fractions (90 ml) were collected. […]
# An N,N-dimethylformamide solution (5 μl) containing the test compound was added to a mixture of water (25 μl), 1M Tris-hydrochloride buffer (10 μl, pH 7.5) and 1 mM aqueous glycylprolyl-p-nitroanilide (Gly-Pro-p-NA; manufactured by Backem AG) solution (50 μl) to prepare a mixed solution. […] The absorbance after 0 h and 3 h was measured using a microplate reader (Multiskan Bichromatic; manufactured by Labsystems) at a wavelength of 405 nm and an increase (ΔODs) was determined. […]
row,Compound,IC50 [nM]
1,"CCCCOc1c(CN)n(CC(C)(C)C)c(=O)c2ccc(OCC(N)=O)cc12 [Example 95, 2-{{3-(Aminomethyl)-4-butoxy-2-neopentyl-1-oxo-1,2-dihydro-6-isoquinolinyl}oxy}acetamide hydrochloride]",280
2,"CC(=O)Nc1ccc2c(=O)n(CC(C)C)c(CN)c(-c3ccccc3)c2c1.Cl [Example 112, 6-Acetylamino-3-aminomethyl-2-isobutyl-4-phenyl-1(2H)-isoquinolinone hydrochloride]",250

# System: not given
# Assay: not given
# Settings: not given
row,Compound,melting point
1,Cc1ccc(-c2c(CN)n(CC(C)C)c(=O)c3ccccc23)cc1.Cl,178 to 180 °C (dec.)
2,CCCCOc1c(CN)n(CC2CC2)c(=O)c2ccc(-c3cnco3)cc12.Cl,124 to 126 °C
3,CCCCOc1c(CN)n(CC2CC2)c(=O)c2ccc(/C=C/C(N)=O)cc12.Cl,188 to 190 °C
4,CCCCOc1c(CN)n(CC(C)C)c(=O)c2ccc(/C=C/C(N)=O)cc12.Cl,223 to 225 °C
5,CCCCOc1c(CN)n(CC(C)C)c(=O)c2ccc(-c3cnco3)cc12.Cl,211 to 213 °C
6,CC(C)Cn1c(CN)c(-c2cccc(F)c2)c2cc(OCC(N)=O)ccc2c1=O.Cl,209 to 210 °C
7,CC(C)Cn1c(CN)c(-c2ccc(F)cc2)c2cc(OCC(N)=O)ccc2c1=O.Cl,189 to 190 °C
8,CC(=O)c1ccc2c(=O)n(CC(C)C)c(CN)c(-c3ccccc3)c2c1.Cl,179 °C (dec.)
9,CC(C)Cn1c(CN)c(-c2ccccc2)c2cc(-c3nn[nH]n3)ccc2c1=O.Cl,218 to 220 °C
10,CSc1ccc2c(=O)n(CC(C)C)c(CN)c(-c3ccccc3)c2c1.Cl,252 to 255 °C
11,CC(C)Cn1c(CN)c(-c2ccccc2)c2cc(S(C)(=O)=O)ccc2c1=O.Cl,209 °C (dec.)
12,CC(C)Cn1c(CN)c(-c2ccccc2)c2cc(-c3noc(=O)[nH]3)ccc2c1=O.Cl,253 °C (dec.)
13,CC(C)Cn1c(CN)c(-c2ccccc2)c2cc(-c3nsc(=O)[nH]3)ccc2c1=O.Cl,232 to 237 °C
14,CC(C)Cn1c(CN)c(-c2ccc(Cl)cc2)c2cc(O)ccc2c1=O.Cl,247 to 249 °C
15,CCCCOc1c(CN)n(CC(C)C)c(=O)c2ccc(C(N)=S)cc12.Cl,200 to 202 °C
16,Cc1ccc(-c2c(CN)n(CC(C)C)c(=O)c3ccc(O)cc23)cc1.Cl,255 to 256 °C
17,CC(C)Cn1c(CN)c(-c2ccc(F)cc2)c2cc(/C=C/C(=O)O)ccc2c1=O.Cl,255 to 256 °C
18,CCCCOc1c(CN)n(CC(C)(C)C)c(=O)c2ccc(CC(N)=O)cc12.Cl,163 to 165 °C
19,CC(C)Cn1c(CN)c(-c2ccccc2)c2cc(CC#N)ccc2c1=O.Cl,142 to 144 °C
20,CCCCOc1c(CN)n(CC(C)C)c(=O)c2ccc(C#N)cc12.Cl,135 to 136 °C

row,Compound,melting point
1,CCCCOc1c(CN)n(CC(C)C)c(=O)c2ccc(NC(=O)C(C)C)cc12.Cl,181 to 183 °C
2,"CCCCOc1c(CN)n(CC(C)(C)C)c(=O)c2ccc(OCC(N)=O)cc12 (as salt: hydrochloride) [Example 95, 2-{{3-(Aminomethyl)-4-butoxy-2-neopentyl-1-oxo-1,2-dihydro-6-isoquinolinyl}oxy}acetamide hydrochloride]",233 to 235 °C
3,CCCCOc1c(CN)n(CC2CC2)c(=O)c2ccc(C(N)=O)cc12.Cl (hydrate or solvate),164 to 165 °C
4,CCCCOc1c(CN)n(CC2CC2)c(=O)c2ccc(OCC(N)=O)cc12.Cl (hydrate or solvate),133 to 134 °C
5,CCCCOc1c(CN)n(CC(C)C)c(=O)c2ccc(OCC(N)=O)cc12.Cl (hydrate or solvate),248 to 250 °C
6,CC(C)Cn1c(CN)c(-c2ccccc2)c2cc(/C=C/C(N)=O)ccc2c1=O.Cl (hydrate or solvate),223 to 225 °C
7,CCCCOc1c(CN)n(CC(C)(C)C)c(=O)c2ccc(/C=C/C(N)=O)cc12.Cl (hydrate or solvate),187 to 188 °C
8,CC(C)Cn1c(CN)c(OCCCC(F)(F)F)c2cc(OCC(N)=O)ccc2c1=O.Cl (hydrate or solvate),147 to 148 °C
9,Cc1ccc(-c2c(CN)n(CC(C)C)c(=O)c3ccc(OCC(N)=O)cc23)cc1.Cl (hydrate or solvate),278 to 280 °C
10,"Cc1csc(-c2ccc3c(=O)n(CC(C)C)c(CN)c(-c4ccccc4)c3c2)n1 (hydrate or solvate) [Example 194, 3-(Aminomethyl)-2-isobutyl-6-(4-methyl-1,3-thiazol-2-yl)-4-phenyl-1(2H)-isoquinolinone]",162 to 163 °C
11,"CC(C)Cn1c(CN)c(-c2ccccc2)c2cc(Br)ccc2c1=O [Example 106, 3-Aminomethyl-6-bromo-2-isobutyl-4-phenyl-1(2H)-isoquinolinone]",129 to 130 °C
12,"CCn1c(CN)c(-c2ccccc2)c2cc(Cl)ccc2c1=O [Example 113, 3-(Aminomethyl)-6-chloro-2-ethyl-4-phenyl-1(2H)-isoquinolinone]",126 to 127 °C
13,"CC(C)Cn1c(CN)c(-c2ccccc2)c2cc(Cl)ccc2c1=O [Example 118, 3-(Aminomethyl)-6-chloro-2-isobutyl-4-phenyl-1(2H)-isoquinolinone]",123 to 124 °C
14,"CC(C)(C)Cn1c(CN)c(-c2ccccc2)c2cc(Cl)ccc2c1=O [Example 122, 3-(Aminomethyl)-6-chloro-2-neopentyl-4-phenyl-1(2H)-isoquinolinone]",173 to 174 °C
15,"CC(C)Cn1c(CN)c(-c2ccccc2)c2ccccc2c1=O [Example 123, 3-(Aminomethyl)-2-isobutyl-4-phenyl-1(2H)-isoquinolinone]",129 to 130 °C
16,"CC(C)Cn1c(CN)c(-c2ccc(Cl)cc2)c2ccccc2c1=O [Example 124, 3-(Aminomethyl)-4-(4-chlorophenyl)-2-isobutyl-1(2H)-isoquinolinone]",119 to 120 °C
17,"CC(C)Cn1c(CN)c(-c2ccccc2)c2cc(/C=C/C(N)=O)ccc2c1=O [Example 160, (E)-3-[3-(Aminomethyl)-2-isobutyl-1-oxo-4-phenyl-1,2-dihydro-6-isoquinolinyl]-2-propenamide]",228 to 230 °C
18,"CC1=NN(c2ccc3c(=O)n(CC(C)C)c(CN)c(-c4ccccc4)c3c2)CO1 [Example 166, 3-(Aminomethyl)-2-isobutyl-6-(5-methyl-1,3,4-oxadiazol-3-yl)-4-phenyl-1(2H)-isoquinolinone]",179 to 181 °C
19,"CC(C)Cn1c(CN)c(-c2ccccc2)c2cc(SCC(N)=O)ccc2c1=O [Example 171, 2-{[3-(Aminomethyl)-2-isobutyl-1-oxo-4-phenyl-1,2-dihydro-6-isoquinolinyl]sulfanyl}acetamide]",218 to 220 °C
20,"CC(C)Cn1c(CN)c(-c2ccccc2)c2cc([S+](C)[O-])ccc2c1=O (centres unmarked) [Example 172, 3-(Aminomethyl)-2-isobutyl-6-(methylsulfinyl)-4-phenyl-1(2H)-isoquinolinone]",167 °C (dec.)
